Data taken from US11517528B2, “Lipid membrane structure for delivery into siRNA cell” (NATIONAL UNIVERSITY CORPORATION HOKKAIDO UNIVERSITY, priority 2017, dated 2022).

What was measured:
[1] = tested on: HeLa cells stably expressing dual-luciferase (HeLa-dluc); experiment: in vitro knockdown activity, dual-luciferase assay; format: cell-based
Procedure: Hemolysis activity, in vitro knockdown activity, and in vivo F7 knockdown activity, which are indicators of endosome escape activity, were measured. Regarding the hemolysis activity, mouse erythrocytes and LNPs were mixed in a buffer solution adjusted to pH 6.5, the mixture was incubated at 37° C. for 30 minutes and then centrifuged, and an absorbance of the supernatant at 545 nm was measured. Hemolysis efficiency of each sample was calculated by respectively using a sample to which LNPs were not added and a sample to which Triton X-100 having a final concentration of 0.5% was added, as a negative control and a positive control. Regarding the in vitro knockdown activity, LNPs loaded with siRNA against luciferase were added to HeLa cells stably expressing dual-luciferase (HeLa-dluc) at various concentrations, and knockdown efficiency was calculated 24 hours after the addition by dual-luciferase assay. […] Regarding the in vivo F7 knockdown activity, 0.1 mg siRNA/kg of LNPs loaded with siRNA against F7 were intravenously administered to an ICR mouse (4 weeks old, female), and F7 enzyme activity in plasma was measured 24 hours after the administration. Each activity against pKa was plotted (FIG. 3).
The influence of hydrophobic scaffolds on siRNA introduction activity of small LNPs with an average particle diameter of about 35 nm was examined. […]

[2] = cationic lipid content in liver and spleen by LC/MS; format: in vivo, mouse; settings: 1 mg siRNA/kg of LNP i.v., ICR mice; until 72 hours
Procedure: 1 mg siRNA/kg of Each LNP was intravenously administered to ICR mice (4 weeks old, female), the liver and spleen were recovered over time, and each cationic lipid was quantitatively determined by LC/MS.

CCCCC/C=C\C/C=C\CCCCCCCCC(O)(CCCCCCCC/C=C\C/C=C\CCCCC)CCCCOC(=O)C1CCN(C)CC1 [CL15A, (14Z,17Z)-5-Hydroxy-5-((9Z,12Z)-octadeca-9,12-dien-1-yl)tricosa-14,17-dien-1-yl 1-methylpiperidine-4-carboxylate]
luciferase knockdown efficiency ([1]; 30 nM siRNA, small LNPs, average particle diameter about 35 nm, HeLa-dluc): ≤ 30%

CCCCCCCC/C=C\CCCCCCCC(=O)OCCCCCCC(O)(CCCCCCOC(=O)CCCCCCC/C=C\CCCCCCCC)CCCCOC(=O)C1CCN(C)CC1 [CL15H6, 7-Hydroxy 7-(4-((1-methylpiperidine-4-carbonyl)oxy)butyl)tridecane-1,13-diyl dioleate]
in vitro knockdown activity ([1]; LNPs loaded with siRNA against luciferase, 24 hours, compared with CL15A): about three times higher activity than that of CL15A

CCCCC/C=C\C/C=C\CCCCCCCCOC1(OCCCCCCCC/C=C\C/C=C\CCCCC)CCN(C)CC1 [YSK05]
tissue content of cationic lipid in liver and spleen over time [2]: almost constant until 72 hours after the administration
